From patent US10899758B2, “Inhibitors of the menin-MLL interaction” (Vitae Pharmaceuticals, LLC, priority 2016, dated 2021)
Like-named read-outs stand apart in the source and are kept apart here.

Tests used:
[1] = biological target: T1, menin/MLL binding (biotinylated wild-type or mutated menin and MLL-AF9 fusion protein) (Homo sapiens, UniProt O00255); assay: Assay 1 (Binding Assay): AlphaLISA menin/MLL binding; details: 5 nM biotinylated menin, MLL-AF9-FLAG lysate
T1 construct: biotinylated (1) wild-type menin or (2) mutated menin (described in Nature (2012) Vol. 482, pp. 542-548); fused on or other part: Biotin attached chemically (Sulfo-NHS-Biotin); no fused second protein is printed for menin
T1 sequence (O00255 1-459 limits assumed): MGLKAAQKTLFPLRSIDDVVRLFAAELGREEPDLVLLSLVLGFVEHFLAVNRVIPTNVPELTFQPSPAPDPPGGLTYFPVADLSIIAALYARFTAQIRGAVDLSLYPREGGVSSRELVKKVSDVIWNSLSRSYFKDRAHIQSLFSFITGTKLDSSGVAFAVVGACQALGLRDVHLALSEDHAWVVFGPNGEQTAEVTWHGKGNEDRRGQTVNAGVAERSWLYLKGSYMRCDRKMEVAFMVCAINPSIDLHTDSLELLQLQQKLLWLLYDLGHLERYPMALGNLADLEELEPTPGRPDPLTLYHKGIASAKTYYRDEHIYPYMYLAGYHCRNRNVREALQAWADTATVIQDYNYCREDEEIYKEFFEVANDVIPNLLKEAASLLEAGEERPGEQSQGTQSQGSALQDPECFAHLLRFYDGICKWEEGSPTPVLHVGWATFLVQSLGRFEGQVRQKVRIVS
In short: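 Biotinylated E. coli-expressed menin (wild-type or mutant), 5 nM, incubated 30 min RT with compound and HEK293 lysate of MLL1-1,396–AF9-FLAG in pH 7.4 Tris buffer, 5% DMSO, 1 mM DTT. Anti-FLAG acceptor and streptavidin donor beads added, 60 min RT, AlphaLISA signal read. IC50 from four-parameter fit of % inhibition.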

[2] = test system: human acute monocytic leukemia cell line MV-4-11; assay: Assay 2 (Cell Proliferation Assay), ATP quantitation (CellTiter-Glo); assay type: cell-based; details: MV-4-11 cells, read-out: Assay 2 (EC50, inhibition of cell proliferation)
In short: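 Cells (1.67×10^4/well, 10% FBS medium) incubated ±compound 72 h at 37 °C, 5% CO2; HL-60 served as toxicity control. ATP read by CellTiter-Glo luminescence; % inhibition scaled between DMSO and a potent menin inhibitor at ≥100×LD50.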

SMILES	IC50 [1] [nM]	EC50 ([2]; Homo sapiens, MV4-11, 72 h) [nM]	EC50 ([2]; 72 h) [nM]
CC(C)N(C)C(=O)c1cc(F)ccc1-n1cc(C2CCCN(Cc3ccc4[nH]c(=O)[nH]c4c3)C2)c2ccncc21 (stereo not shown) [Example 43, 5-fluoro-N-isopropyl-N-methyl-2-(3-(1-((2-oxo-2,3-dihydro-1H-benzo[d]imidazol-5-yl)methyl)piperidin-3-yl)-1H-pyrrolo[2,3-c]pyridin-1-yl)benzamide]	< 100	< 100	
CC(C)N(C)C(=O)c1cc(F)ccc1-n1cc(C2CCCN(Cc3ccc4c(c3)[nH]c(=O)n4CCO)C2)c2ccncc21 (stereo not shown) [Example 44, 5-fluoro-2-(3-(1-((1-(2-hydroxyethyl)-2-oxo-2,3-dihydro-1H-benzo[d]imidazol-5-yl)methyl)piperidin-3-yl)-1H-pyrrolo[2,3-c]pyridin-1-yl)-N-isopropyl-N-methylbenzamide]	< 100		< 100
CC(C)N(C)C(=O)c1cc(F)ccc1-n1cc(C2CCCN(Cc3ccccc3)C2)c2ccncc21 (stereo not shown) [Example 45, 2-(3-(1-benzylpiperidin-3-yl)-1H-pyrrolo[2,3-c]pyridin-1-yl)-5-fluoro-N-isopropyl-N-methylbenzamide]	< 100	100 to 1000	
CC(C)N(C)C(=O)c1cc(F)ccc1-n1cc(C2CCCN(CC3CCCCC3)C2)c2ccncc21 (stereo not shown) [Example 46, 2-(3-(1-(cyclohexylmethyl)piperidin-3-yl)-1H-pyrrolo[2,3-c]pyridin-1-yl)-5-fluoro-N-isopropyl-N-methylbenzamide]	< 100	100 to 1000	
CCN(C(=O)c1cc(F)ccc1-n1cc(C2CCCN(Cc3ccc4[nH]c(=O)[nH]c4c3)C2)c2ccncc21)C(C)C (stereo not shown) [Example 47, N-ethyl-5-fluoro-N-isopropyl-2-(3-(1-((2-oxo-2,3-dihydro-1H-benzo[d]imidazol-5-yl)methyl)piperidin-3-yl)-1H-pyrrolo[2,3-c]pyridin-1-yl)benzamide]	< 100	< 100	
CCN(C(=O)c1cc(F)ccc1-n1cc(C2CCCN(Cc3ccc4c(c3)[nH]c(=O)n4CCO)C2)c2ccncc21)C(C)C (stereo not shown) [Example 49, N-ethyl-5-fluoro-2-(3-(1-((1-(2-hydroxyethyl)-2-oxo-2,3-dihydro-1H-benzo[d]imidazol-5-yl)methyl)piperidin-3-yl)-1H-pyrrolo[2,3-c]pyridin-1-yl)-N-isopropylbenzamide]	< 100	< 100	

Further lines, results first:

IC50 [1] [nM]	EC50 ([2]; Homo sapiens, MV4-11, 72 h) [nM]	EC50 ([2]; 72 h) [nM]	SMILES
< 100	< 100		CC(C)N(C(=O)c1cc(F)ccc1-n1cc(C2CCN(Cc3ccccc3)CC2)c2ccncc21)C(C)C [Example 33, 2-(3-(1-benzylpiperidin-4-yl)-1H-pyrrolo[2,3-c]pyridin-1-yl)-5-fluoro-N,N-diisopropylbenzamide]
< 100	100 to 1000		CS(=O)(=O)N[C@H]1CC[C@H](CCN2CCC(c3cn(-c4ccc(F)cc4OCC4CC4)c4cnccc34)CC2)CC1 [Example 34, N-(trans-4-(2-(4-(1-(2-(cyclopropylmethoxy)-4-fluorophenyl)-1H-pyrrolo[2,3-c]pyridin-3-yl)piperidin-1-yl)ethyl)cyclohexyl)methanesulfonamide]
< 100	< 100		CC(C)N(CCO)C(=O)c1cc(F)ccc1-n1cc(C2CCN(Cc3ccccc3)CC2)c2ccncc21 [Example 36, 2-(3-(1-benzylpiperidin-4-yl)-1H-pyrrolo[2,3-c]pyridin-1-yl)-5-fluoro-N-(2-hydroxyethyl)-N-isopropylbenzamide]
< 100	100 to 1000		Cc1c(CN2CCC(c3cn(-c4ccc(F)cc4)c4cnccc34)CC2)ccc2[nH]c(C#N)cc12 [Example 37, 5-((4-(1-(4-fluorophenyl)-1H-pyrrolo[2,3-c]pyridin-3-yl)piperidin-1-yl)methyl)-4-methyl-1H-indole-2-carbonitrile]
< 100	100 to 1000		Cc1c(CN2CCC(c3cn(-c4ccc(F)cc4CC(C)C)c4cnccc34)CC2)ccc2[nH]c(C#N)cc12 [Example 42, 5-((4-(1-(4-fluoro-2-isobutylphenyl)-1H-pyrrolo[2,3-c]pyridin-3-yl)piperidin-1-yl)methyl)-4-methyl-1H-indole-2-carbonitrile]
